From patent publication US10829478B2, “5-[3-[piperazin-1-yl]-3-oxo-propyl]-imidazolidine-2,4-dione derivatives as ADAMTS 4 and 5 inhibitors for treating e.g. osteoarthritis” (Galapagos NV, priority 2016, dated 2020)

Legend:
human ADAMTS6 = human ADAMTS6 (Homo sapiens (Human), UniProt Q9UKP5); experiment: hADAMTS-6 fluorescent based protease assay (520 MMP FRET substrate XII); format: biochemical; conditions: 37° C. for 2 h; read-out: hADAMTS-6 potency IC50
How it was run: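 ADAMTS6 (0.73 nM final) in 25 mM Tris pH 8.0, 0.05% CHAPS, 2.5 mM CaCl2 with compound dilution series (top 20 μM, 1/5 steps). Reaction started with 520 MMP FRET Substrate XII, incubated 2 h at 37 °C. Substrate cleavage read by fluorescence ex485/em530; IC50 determined.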

rnADAMTS-5 (1-564-6H) = rnADAMTS-5 (1-564-6H) (Rattus norvegicus (Rat), UniProt Q6TY19); experiment: Rat ADAMTS-5 TBIS-1 cleavage assay; format: biochemical; conditions: 120 min at 37° C.; read-out: Rat ADAMTS-5 potency IC50
human ADAMTS-5 = human ADAMTS-5 (Homo sapiens (Human), UniProt Q9UNA0); experiment: hADAMTS-5 TBIS-1 cleavage assay, Protocol 2; format: biochemical; conditions: 45 min at 37° C., read-out: ADAMTS5 potency IC50
human ADAMTS4 = human ADAMTS4 (Homo sapiens (Human), UniProt O75173); experiment: hADAMTS-4 TBIS-1 cleavage assay, Protocol 1; format: biochemical; conditions: 60 min at room temperature, read-out: ADAMTS4 potency IC50
Description: The reaction is initiated by adding to the assay plate TBIS-1 (10 μL, 4.5 μM, Anaspec) in the same buffer.
Finally, the fluorescence is read on the Envision (Perkin Elmer) after an incubation of 60 min at room temperature (Excitation 485 nm, emission 535).

human TACE = human TACE (Homo sapiens (Human), UniProt P78536); experiment: biochemical
Sequence of human TACE (P78536 215-671): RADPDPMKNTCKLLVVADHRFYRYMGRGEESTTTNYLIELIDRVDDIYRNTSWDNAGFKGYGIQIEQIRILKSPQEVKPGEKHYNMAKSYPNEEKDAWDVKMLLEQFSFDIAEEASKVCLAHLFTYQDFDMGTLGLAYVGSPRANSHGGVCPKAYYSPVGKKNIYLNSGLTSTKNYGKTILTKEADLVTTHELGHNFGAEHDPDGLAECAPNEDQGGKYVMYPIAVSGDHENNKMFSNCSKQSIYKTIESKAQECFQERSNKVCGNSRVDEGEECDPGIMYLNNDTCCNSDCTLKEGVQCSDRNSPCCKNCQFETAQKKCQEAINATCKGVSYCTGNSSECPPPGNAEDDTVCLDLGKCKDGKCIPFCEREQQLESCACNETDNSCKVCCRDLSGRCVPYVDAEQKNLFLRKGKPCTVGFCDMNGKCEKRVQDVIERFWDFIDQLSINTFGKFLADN
Description: Finally, the fluorescence is read on the Envision (Perkin Elmer) after an incubation of 75 min at room temperature (Excitation 485 nm, Emission 530).

Sequence of rnADAMTS-5 (1-564-6H) (Q6TY19 entry or part of it): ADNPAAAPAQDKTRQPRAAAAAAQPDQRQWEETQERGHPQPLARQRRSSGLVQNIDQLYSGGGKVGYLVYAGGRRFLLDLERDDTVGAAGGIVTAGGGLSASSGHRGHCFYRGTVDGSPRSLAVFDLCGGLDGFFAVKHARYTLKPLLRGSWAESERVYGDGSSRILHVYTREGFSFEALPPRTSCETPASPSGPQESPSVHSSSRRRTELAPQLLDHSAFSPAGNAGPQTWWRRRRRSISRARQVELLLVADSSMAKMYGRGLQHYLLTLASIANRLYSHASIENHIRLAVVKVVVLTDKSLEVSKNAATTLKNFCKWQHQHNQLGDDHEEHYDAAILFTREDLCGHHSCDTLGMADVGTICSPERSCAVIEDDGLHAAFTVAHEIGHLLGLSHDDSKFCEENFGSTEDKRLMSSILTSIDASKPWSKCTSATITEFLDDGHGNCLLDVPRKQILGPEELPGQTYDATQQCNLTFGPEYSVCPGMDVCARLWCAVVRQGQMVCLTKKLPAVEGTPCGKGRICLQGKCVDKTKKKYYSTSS
Sequence of human ADAMTS4 (O75173 213-837): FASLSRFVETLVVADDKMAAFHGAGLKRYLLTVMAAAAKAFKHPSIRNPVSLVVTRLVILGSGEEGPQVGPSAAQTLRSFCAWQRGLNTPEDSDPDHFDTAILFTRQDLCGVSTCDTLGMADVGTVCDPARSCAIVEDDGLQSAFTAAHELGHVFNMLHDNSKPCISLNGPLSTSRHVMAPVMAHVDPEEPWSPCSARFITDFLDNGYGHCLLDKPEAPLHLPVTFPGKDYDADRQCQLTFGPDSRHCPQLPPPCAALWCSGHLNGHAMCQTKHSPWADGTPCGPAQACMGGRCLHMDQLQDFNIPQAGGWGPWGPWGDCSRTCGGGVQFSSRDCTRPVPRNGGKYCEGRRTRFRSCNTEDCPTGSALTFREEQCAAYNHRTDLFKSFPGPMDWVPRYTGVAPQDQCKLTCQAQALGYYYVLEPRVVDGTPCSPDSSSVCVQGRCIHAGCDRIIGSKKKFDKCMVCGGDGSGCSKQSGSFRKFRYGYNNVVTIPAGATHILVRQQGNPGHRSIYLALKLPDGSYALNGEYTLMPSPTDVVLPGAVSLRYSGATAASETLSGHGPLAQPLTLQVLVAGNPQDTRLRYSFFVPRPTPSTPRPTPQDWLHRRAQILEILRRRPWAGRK
Sequence of human ADAMTS6 (Q9UKP5 other isoform, or with tags, fused parts or gaps): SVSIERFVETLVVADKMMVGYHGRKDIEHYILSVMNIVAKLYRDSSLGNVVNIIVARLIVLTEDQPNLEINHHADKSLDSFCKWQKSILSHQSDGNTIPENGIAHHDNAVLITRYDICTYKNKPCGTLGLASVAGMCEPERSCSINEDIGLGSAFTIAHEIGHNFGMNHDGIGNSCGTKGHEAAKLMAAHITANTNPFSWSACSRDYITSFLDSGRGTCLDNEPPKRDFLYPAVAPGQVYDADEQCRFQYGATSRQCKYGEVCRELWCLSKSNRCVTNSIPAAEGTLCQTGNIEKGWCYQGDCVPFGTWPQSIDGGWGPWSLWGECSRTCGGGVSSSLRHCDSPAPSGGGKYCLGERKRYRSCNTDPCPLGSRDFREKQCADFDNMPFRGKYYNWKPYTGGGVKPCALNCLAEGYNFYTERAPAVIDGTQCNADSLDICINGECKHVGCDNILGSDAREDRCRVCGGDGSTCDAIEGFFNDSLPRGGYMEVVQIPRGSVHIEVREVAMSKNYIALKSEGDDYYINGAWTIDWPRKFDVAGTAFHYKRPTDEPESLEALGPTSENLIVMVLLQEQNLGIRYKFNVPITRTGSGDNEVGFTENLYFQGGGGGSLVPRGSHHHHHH
Sequence of human ADAMTS-5 (Q9UNA0 262-930): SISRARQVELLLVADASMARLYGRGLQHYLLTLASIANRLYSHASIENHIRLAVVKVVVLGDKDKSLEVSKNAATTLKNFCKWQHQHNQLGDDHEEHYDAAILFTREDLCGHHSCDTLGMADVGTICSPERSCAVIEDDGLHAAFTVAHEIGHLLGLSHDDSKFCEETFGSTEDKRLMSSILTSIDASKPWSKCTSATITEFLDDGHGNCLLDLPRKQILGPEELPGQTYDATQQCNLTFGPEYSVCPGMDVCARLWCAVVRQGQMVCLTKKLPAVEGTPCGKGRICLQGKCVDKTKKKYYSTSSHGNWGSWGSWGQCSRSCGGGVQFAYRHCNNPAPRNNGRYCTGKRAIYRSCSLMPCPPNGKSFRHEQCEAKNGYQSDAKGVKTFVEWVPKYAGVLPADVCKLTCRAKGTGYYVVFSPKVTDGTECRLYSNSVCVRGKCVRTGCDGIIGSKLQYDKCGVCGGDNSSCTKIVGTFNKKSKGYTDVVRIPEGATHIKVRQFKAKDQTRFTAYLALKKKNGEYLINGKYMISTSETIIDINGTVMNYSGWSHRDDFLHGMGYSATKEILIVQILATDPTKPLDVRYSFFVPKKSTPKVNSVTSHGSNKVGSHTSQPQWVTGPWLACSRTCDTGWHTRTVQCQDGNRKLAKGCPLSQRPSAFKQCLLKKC

IC50 (human ADAMTS6): > 100 nM
IC50 (rnADAMTS-5 (1-564-6H)): > 100 nM
IC50 (human ADAMTS-5): > 100 nM
IC50 (human ADAMTS4): 25 to 50 nM
IC50 (human TACE): > 100 nM
Structure (SMILES): COc1cccc(N2CCN(C(=O)CCC3(C4CC4)NC(=O)NC3=O)CC2)c1 (centres unmarked) [Cpd 2, 5-cyclopropyl-5-[3-[4-(3-methoxyphenyl)piperazin-1-yl]-3-oxo-propyl]imidazolidine-2,4-dione]
